Where “and” joins values, the source holds several entries; their conditions need not be identical. Identical values can stand only once.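 Each compound was tested at five concentrations against cells in 96-well plates for 48 hours. The concentration for 50% growth inhibition is given as GI50. TGI: concentration producing complete growth inhibition.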
Assays:
Test in all cases: NCI tumour cell line growth inhibition, 48 h
SNB-19 CNS = system: SNB-19 CNS
HCT-116 colon = system: HCT-116 colon
OVCAR-4 ovarian = system: OVCAR-4 ovarian
EKVX NSCLC = system: EKVX NSCLC
SF-268 CNS = system: SF-268 CNS
UACC-62 melanoma = system: UACC-62 melanoma
M14 melanoma = system: M14 melanoma
MDA-MB-231 breast = system: MDA-MB-231 breast
HS 578T breast = system: HS 578T breast
T-47D breast = system: T-47D breast

Structure (SMILES)	TGI (SNB-19 CNS)	TGI (HCT-116 colon)	TGI (OVCAR-4 ovarian)	TGI (EKVX NSCLC)	TGI (SF-268 CNS)	TGI (UACC-62 melanoma)	TGI (M14 melanoma)	GI50 (SNB-19 CNS)	GI50 (MDA-MB-231 breast)	TGI (MDA-MB-231 breast)	GI50 (HS 578T breast)	TGI (HS 578T breast)	GI50 (EKVX NSCLC)	GI50 (SF-268 CNS)	GI50 (UACC-62 melanoma)	GI50 (M14 melanoma)	GI50 (HCT-116 colon)	GI50 (OVCAR-4 ovarian)	GI50 (T-47D breast)	TGI (T-47D breast)
Cc1ccc(S(=O)(=O)N/N=C/c2oc(-c3ccccc3Cl)c(-c3ccccc3Cl)c2[N+](=O)[O-])cc1	64 µM	46.6 µM	> 100 µM	> 100 µM	> 100 µM	65.8 µM	> 100 µM	–	–	–	–	–	–	–	–	–	–	–	–	–
Cc1ccc([N+](=O)[O-])cc1NC(=O)C(=O)Cc1cc(=O)oc2cc(O)ccc12	> 100 µM	47.5 µM	> 100 µM	> 100 µM	> 100 µM	> 100 µM	> 100 µM	–	–	–	–	–	–	–	–	–	–	–	–	–
O=C(Nc1ccc([N+](=O)[O-])cc1C(=O)O)c1ccc([N+](=O)[O-])cc1	> 100 µM	53.9 µM	> 100 µM	> 100 µM	> 100 µM	> 100 µM	> 100 µM	–	–	–	–	–	–	–	–	–	–	–	–	–
Cn1cnc([N+](=O)[O-])c1SC1=NCCS1	> 100 µM	> 100 µM	> 100 µM	> 100 µM	> 100 µM	> 100 µM	> 100 µM	–	–	–	–	–	–	–	–	–	–	–	–	–
COC(=O)c1oc2c(O)c(OC)c(Br)cc2c1C	46.1 µM	–	–	49.1 µM	> 100 µM	30.7 µM	42.6 µM	22.9 µM	16.5 µM	37 µM	33.7 µM	> 100 µM	23.8 µM	31 µM	14.7 µM	22.6 µM	–	–	–	–
COc1ccc(NC(=O)COC(=O)c2cccc3c(=O)c4ccccc4[nH]c23)cc1	> 100 µM	25.5 µM	38.4 µM	96.2 µM	55.2 µM	33.1 µM	90.7 µM	–	–	–	–	–	–	–	–	–	–	–	–	–
O=c1[nH]c(=O)n(C2CC(O)C(CO)O2)cc1C#Cc1cc(C(F)(F)F)cc(C(F)(F)F)c1 (centres undefined)	> 100 µM	> 100 µM	> 100 µM	> 100 µM	> 100 µM	> 31.6 µM	> 46.5 µM	–	–	–	–	–	–	–	–	–	–	–	–	–
COCOCc1cc(OCc2ccccc2)c(OC)cc1Br	> 100 µM	> 100 µM	> 100 µM	> 100 µM	> 100 µM	> 100 µM	–	–	–	–	–	–	–	–	–	–	–	–	–	–
NC(N)=N/N=C(/c1ccccc1)c1ccc(Cl)cc1	> 100 µM	63.6 µM	> 100 µM	–	> 100 µM	> 100 µM	78.4 µM	87.2 µM	16.5 µM	56.6 µM	8.57 µM	51.7 µM	–	8.44 µM	22.4 µM	12 µM	4.71 µM	19 µM	> 100 µM	> 100 µM
Nc1nc(Cl)c(N=Nc2ccc(Cl)cc2)c(NCC2(CO)CC(OCc3ccccc3)C2)n1 (centres undefined)	> 100 µM and 47.6 µM	> 100 µM and 32.4 µM	–	–	61.1 µM and > 100 µM and > 61 µM	55.2 µM and > 100 µM and 25.1 µM	> 100 µM and 18.7 µM	26.7 µM and > 100 µM and 18.3 µM	–	–	7.33 µM and 29.1 µM and 8.36 µM	36.2 µM and > 100 µM and > 53.7 µM	2.37 µM and 11 µM and 3.08 µM	–	–	–	7.37 µM and 40.9 µM and 8.76 µM	2.25 µM and 15.9 µM and 3.65 µM	8.73 µM	73.1 µM and > 100 µM and > 77.2 µM
CCOCC(=O)N[C@H]1CCc2cc(OC(=O)COCC)c(OC)c(OC)c2-c2ccc(SC)c(=O)cc21	> 100 µM	–	> 100 µM	> 100 µM	–	> 100 µM	0.0762 µM	0.0283 µM	0.036 µM	–	–	–	32.1 µM	0.0431 µM	–	0.0134 µM	–	–	–	–
O=C(CC/C(CC(=O)c1ccc(Cl)cc1)=N/O)Nc1ccc(Cl)c(Cl)c1	> 100 µM	> 100 µM	> 100 µM	> 100 µM	> 100 µM	> 100 µM	> 100 µM	–	–	–	–	–	–	–	–	–	–	–	–	–
CC(=O)c1c(O)ccc2c(C)c(C(=O)O)oc12	> 100 µM	> 100 µM	> 100 µM	> 100 µM	> 100 µM	> 100 µM	> 100 µM	> 100 µM	–	–	> 100 µM	> 100 µM	> 100 µM	> 100 µM	80.4 µM	> 100 µM	> 100 µM	> 100 µM	> 100 µM	> 100 µM
O=C1/C(=C/c2ccc(Cl)cc2)CN(Cc2cn(CCNc3ccnc4cc(Cl)ccc34)nn2)C/C1=C\c1ccc(Cl)cc1	1.27 µM	0.436 µM	1.81 µM	–	0.786 µM	1.92 µM	2.21 µM	0.319 µM	0.293 µM	0.966 µM	0.724 µM	13.5 µM	–	0.27 µM	0.528 µM	0.56 µM	0.203 µM	0.353 µM	0.946 µM	3.62 µM
O=C(NCC(=O)N1CC[C@H](NC2CCC(O)(c3ccc(-c4ncccn4)cn3)CC2)C1)c1cccc(C(F)(F)F)c1 (some centres undefined)	> 100 µM	> 100 µM	> 100 µM	> 100 µM	> 100 µM	> 100 µM	–	> 100 µM	49.5 µM	> 100 µM	48.9 µM	> 100 µM	52.7 µM	> 100 µM	> 100 µM	–	36.4 µM	37.7 µM	22.9 µM	> 100 µM
C#C[C@@]1(O)CCCC2=CC(=O)C[C@]21C	> 100 µM	–	–	> 100 µM	> 100 µM	–	> 100 µM	–	–	–	–	–	–	–	–	–	–	–	–	–
Cc1cc(Cl)ccc1NC(=O)CC1SC(N)=NC1=O (centres undefined)	> 100 µM	–	> 100 µM	> 100 µM	> 100 µM	> 100 µM	> 100 µM	–	–	–	–	–	–	–	–	–	–	–	–	–
N#CCc1ccc(/C(C#N)=C2/OC(=N)C(c3ccc(CC#N)cc3)C2=O)cc1 (centres undefined)	> 100 µM	> 100 µM	> 100 µM	> 100 µM	> 100 µM	> 100 µM	> 100 µM	–	–	–	–	–	–	–	–	–	–	–	–	–
O=C1CCCC(=O)C1=C(O)CCCCCCCCCCc1ccccc1	> 100 µM	> 100 µM	> 100 µM	> 100 µM	> 100 µM	> 100 µM	> 100 µM	–	–	–	–	–	–	–	–	–	–	–	–	–
COC(=O)c1c(C)cc2c(c1O)C1(O)C(=O)c3cc4c(c(O)c3C(=O)C1(OC)C(O)C2)C(=O)C=C(NC1OC(C)C(OC)C(O)C1OC)C4=O (centres undefined)	1.22 µM	0.177 µM	0.213 µM	0.864 µM	0.648 µM	0.0502 µM	0.262 µM	–	–	–	–	–	–	–	–	–	–	–	–	–
Cc1ccc(-c2nc3c(C(=O)NCCN(C)C)cccc3[nH]2)cc1	> 100 µM	20.1 µM	85.3 µM	69.5 µM	48.9 µM	32.5 µM	29.2 µM	–	–	–	–	–	–	–	–	–	–	–	–	–
Cc1ccc(NC(=O)COC(=O)c2cccc3c(=O)c4ccccc4[nH]c23)cc1	> 100 µM	> 100 µM	> 100 µM	> 100 µM	> 100 µM	> 100 µM	> 100 µM	–	–	–	–	–	–	–	–	–	–	–	–	–

Source: PubChem BioAssay (NCI)
